≈ marks a conversion by molar mass, not a printed value. Entries after “also recorded” stand apart in the source; their conditions may differ. Where two headings read alike, the source gives them in different places.

The text below walks through data of PMC10669340, “Bioactive Compounds from an Endophytic Pezicula sp. Showing Antagonistic Effects against the Ash Dieback Pathogen” (Biomolecules, 2023).

Series [1] has as its system panel of bacteria and fungi. Description: Antimicrobial serial dilution assay, whole panel (summary statements). The format is cell-based. In outline: (§1)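 Each compound was diluted serially, exposed to the test organisms, and scored for the minimum inhibitory concentration using an established procedure.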
Series [2] has as its system panel of mammalian cell lines. The series is described as follows: MTT cytotoxicity assay, panel (summary statements). The format is cell-based. The note with it: 4–6 only KB3.1 and L929. How it is done: (§2) The in vitro cytotoxicity assay was performed using the MTT (3-(4,5-dimethylthiayol-2-yl)-2,5-diphenyltetrazolium bromide) test in 96-well microtiter plates as previously described.
For orientation: Formazan colour is commonly taken as a measure of viable cells.

For series [3], the system named is H. fraxineus (isolate RH02-T6-B4-2). The series is described as follows: Agar disc diffusion assay. The format is cell-based, Hymenoscyphus fraxineus. The note with it: for Antifungal activity, inhibition diameter: 6 mm disc, 7 days, 21 °C. In a few lines:
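Sterile paper discs on potato–dextrose agar inoculated with H. fraxineus in 9 cm dishes; nystatin (20 and 50 µg/disc) as positive and methanol (10 µL/disc) as negative control. Plates held at 21 °C for 7 days, then inhibition zone diameters measured.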
In general terms: A growth-free zone around the sample is the usual read-out of agar diffusion tests.

Series [4] deals with Fraxineus excelsior leaves. Description: Phytotoxicity leaf puncture assay. The note with it: 1 mg/mL in MeOH, 20 µL on punctured leaves, evaluated after 3 days. The protocol: The phytotoxicity of the compounds 1, 3 and 4 was assessed using the leaf puncture assay as described previously. The other compounds could not be evaluated because of the limited quantity.
For this assay, similar leaves of the same Fraxineus excelsior plant were chosen onto which the compounds were applied. The pure compounds were dissolved at 1 mg/mL in MeOH. Then, 20 µL of test samples were applied to the adaxial sides of leaves that had previously been needle punctured. A total of 20 µL of MeOH in distilled water (4%) was applied on the leaves as the negative control and 1 mg/mL macrocidin A [23] as the positive control. Each treatment was repeated three times and then the leaves were placed on moistened paper filters in petri dishes (diameter 9 cm) to prevent the droplets from drying. The experiment was run in duplicate. Leaves were evaluated for the symptoms after 3 days.

Another series is described as follows: MTT cytotoxicity assay. The format is cell-based. The note with it: read-out: Cytotoxic activity (IC50). The protocol:
as §2

For series [5], the system named is Rhodotorula glutinis DSM 10134. Description: Antimicrobial serial dilution assay (MIC). The format is cell-based. The note with it: DSM10134; Rhodotorula glutinis DSM 10134; n.i.: no inhibition; read-out: Minimum inhibitory concentration (MIC). In a few lines: as §1
Series [6] has as its system Acinetobacter baumannii DSM 30008. The series is described as follows: Antimicrobial serial dilution assay (MIC). The format is cell-based. The note with it: n.i.: no inhibition. In a few lines: as §1
The next series deals with Pichia anomala DSM 6766. The series is described as follows: Antimicrobial serial dilution assay (MIC). The format is cell-based. The note with it: Hansenula anomala, DSM6766; Pichia anomala DSM 6766; n.i.: no inhibition; read-out: Minimum inhibitory concentration (MIC). In outline:
as §1

The test system of series [7] is Mycobacterium smegmatis ATCC 700084. Description: Antimicrobial serial dilution assay (MIC). The format is cell-based. The note with it: Mycolicibacterium smegmatis, ATCC700084; Mycobacterium smegmatis ATCC 700084; n.i.: no inhibition; read-out: Minimum inhibitory concentration (MIC). In a few lines:
as §1

Series [8] concerns Chromobacterium violaceum DSM 30191. Description: Antimicrobial serial dilution assay (MIC). The format is cell-based. The note with it: DSM30191, n.i.: no inhibition, read-out: Minimum inhibitory concentration (MIC). In outline: as §1
The next series deals with Bacillus subtilis DSM 10. The series is described as follows: Antimicrobial serial dilution assay (MIC). The format is cell-based. The note with it: DSM10; Bacillus subtilis DSM 10; n.i.: no inhibition; read-out: Minimum inhibitory concentration (MIC). In outline:
as §1

The subject of series [9] is Pseudomonas aeruginosa PA14. Description: Antimicrobial serial dilution assay (MIC). The format is cell-based. The note with it: n.i.: no inhibition. In a few lines:
as §1

The test system of series [10] is Schizosaccharomyces pombe DSM 70572. Description: Antimicrobial serial dilution assay (MIC). The note with it: DSM70572; Schizosaccharomyces pombe DSM 70572; n.i.: no inhibition; read-out: Minimum inhibitory concentration (MIC). The format is cell-based. In a few lines:
as §1

The test system of the next series is Mucor hiemalis DSM 2656. The series is described as follows: Antimicrobial serial dilution assay (MIC). The format is cell-based. The note with it: DSM2656; Mucor hiemalis DSM 2656; n.i.: no inhibition; read-out: Minimum inhibitory concentration (MIC). In outline: as §1
In series [11] the test system is Staphylococcus aureus DSM 346. The series is described as follows: Antimicrobial serial dilution assay (MIC). The format is cell-based. The note with it: DSM346; Staphylococcus aureus DSM 346; n.i.: no inhibition; read-out: Minimum inhibitory concentration (MIC). In outline: as §1
Series [12] has as its system Escherichia coli DSM 1116. Description: Antimicrobial serial dilution assay (MIC). The format is cell-based. The note with it: n.i.: no inhibition. In outline:
as §1

A further series relates to Candida albicans DSM1665. Description: Antimicrobial serial dilution assay (MIC). The format is cell-based. The note with it: n.i.: no inhibition, read-out: Minimum inhibitory concentration (MIC). In a few lines: as §1
The test system of series [13] is Mycobacterium diernhoferi. Also noted: method as in PMID 24529574. The note with it: cited from earlier work.
In the next series the test system is Micrococcus luteus. Also noted: method as in PMID 24529574. The note with it: cited from earlier work.
The subject of a further series is Nocardioides simplex. More on the design: method as in PMID 24529574. The note with it: cited from earlier work.
Series [14] concerns methicillin-resistant S. aureus (MRSA) strain N315e. Also noted: method as in PMID 24529574. The note with it: cited from earlier work.
The test system of the next series is S. aureus. Also noted: method as in PMID 24529574. The note with it: cited from earlier work.
The subject of another series is Nocardia sp. More on the design: method as in PMID 24529574. The note with it: cited from earlier work.

For `CC=C(Cl)C1=CC(=O)C23CC2C(C)(C)OC3(O)C1=O` (stereo not shown) [Compound 3, Mycorrhizin A], the “antimicrobial activity against the tested microorganisms (in words)” value in [1] was “moderate to weak antifungal activity”. For the same compound, the “cytotoxicity against the tested cell lines (in words)” value in series [2] was “active against all the tested cell lines”. The “Antifungal activity, inhibition diameter” value in series [3] (20 µg/paper disc) turned out to be 19 mm; in series [3] (50 µg/paper disc, n.i.: no inhibition), 31 mm. In addition, the “inhibitory effects against H. fraxineus (in words)” value in series [3] (50 µg (1) and 20 µg (3) test substance per paper disc) is “strong inhibitory effects”. In addition, the “phytotoxic activity, leaf puncture assay” value in [4] is “brownish lesions; also recorded: most phytotoxic effects”. Moreover, the concentration for half-maximal inhibition (IC50) in the series “MTT cytotoxicity assay” (human, A431 squamous cell carcinoma cells) was found to be 1 µM; in the series “MTT cytotoxicity assay” (human, A549 lung carcinoma cells) it was 22 µM; in “MTT cytotoxicity assay” (human, KB3.1 endocervical adenocarcinoma cells, n.c.: no cytotoxicity), 11 µM; in “MTT cytotoxicity assay” (human, MCF-7 breast adenocarcinoma cells), 0.64 µM; in the series “MTT cytotoxicity assay” (human, PC-3 prostate cancer cells), 11 µM; in the series “MTT cytotoxicity assay” (human, SKOV-3 ovarian carcinoma cells) it was 2.4 µM. For the same compound, the IC50 in “MTT cytotoxicity assay” (mouse, L929 fibroblast cells, n.c.: no cytotoxicity) stood at 3.2 µM. Moreover, the MIC in series [5] turned out to be 8.3 µg/mL (≈ 29.4 µM); in the series with Pichia anomala DSM 6766, 16.6 µg/mL (≈ 58.7 µM); in series [7], 66.6 µg/mL (≈ 236 µM); in series [8] it was 66.6 µg/mL (≈ 236 µM); with Bacillus subtilis DSM 10, 66.6 µg/mL (≈ 236 µM); in series [10] it was 33.3 µg/mL (≈ 118 µM). The values for the MIC (in the series on Mucor hiemalis DSM 2656; in [11]; in the series on Candida albicans DSM1665) were 4.2 µg/mL (≈ 14.9 µM), 66.6 µg/mL (≈ 236 µM) and 66.6 µg/mL (≈ 236 µM), respectively. The “Minimum inhibitory concentration (MIC)” value in series [6], in series [9] and in series [12] was “n.i” each time.
In the case of `C/C=C/[C@@H]1C(C)=C[C@@H]2C[C@H](C)CC[C@H]2[C@]1(C)/C(O)=C1\C(=O)N[C@@H]([C@@H](C)O)C1=O` [hymenosetin], the MIC (in series [13]; in the series with Micrococcus luteus; in the series on Nocardioides simplex; in series [14]; in the series on S. aureus; with Nocardia sp.) was at most 1.0 µg/mL each time.

The IC50 is the concentration that gives 50% inhibition.
